According to ChEMBL document CHEMBL3227927, “Synthesis and hypoglycemic activity of pyridyl alcohols” (J Med Chem, 1979):
Active and inactive are the calls of the source. No cut-off for these calls is given here.

Tests used:
Rattus norvegicus [1] = test: Hypoglycemic activity in 48 hrs fasted Charles River rat at 150 mg/kg, po measured at 4 hrs relative to control; assay type: functional
Rattus norvegicus [2] = test: Hypoglycemic activity in 48 hrs fasted Charles River rat at 150 mg/kg, po measured at 1 hr relative to control; assay type: functional
Rattus norvegicus [3] = test: Hypoglycemic activity in 48 hrs fasted Charles River rat at 150 mg/kg, po measured at 2 hrs relative to control; assay type: functional
Rattus norvegicus [4] = test: Hypoglycemic activity in 48 hrs fasted Charles River rat at 150 mg/kg, po measured at 5 hrs relative to control; assay type: functional
Rattus norvegicus [5] = species on record: Rattus norvegicus; test: Toxicity in rat assessed as mortality measured up to 24 hrs; assay type: organism-based; conditions: in vivo
Rattus norvegicus [6] = species on record: Rattus norvegicus; test: Toxicity in rat assessed as increase in hepatic triglyceride level measured up to 24 hrs; assay type: organism-based; conditions: in vivo
Rattus norvegicus [7] = test: Hypoglycemic activity in 48 hrs fasted Charles River rat at 150 mg/kg, po measured at 7 hrs relative to control; assay type: functional, organism-based; design: dose 150 mg/kg
Rattus norvegicus [8] = test: Toxicity in rat assessed as increase in hepatic triglyceride level at 50 mg/kg measured after 4 hrs relative to control; assay type: organism-based; design: dose 50 mg/kg; conditions: in vivo
Rattus norvegicus [9] = test: Hypoglycemic activity in 48 hrs fasted Charles River rat at 50 mg/kg measured at 7 hrs relative to control; assay type: functional, organism-based; design: dose 50 mg/kg
Rattus norvegicus [10] = test: Hypoglycemic activity in 48 hrs fasted Charles River rat at 300 mg/kg, ip measured at 1 hr relative to control; assay type: functional; conditions: route intraperitoneal
Rattus norvegicus [11] = test: Hypoglycemic activity in 48 hrs fasted Charles River rat at 300 mg/kg, ip measured at 4 hrs relative to control; assay type: functional; conditions: route intraperitoneal
Rattus norvegicus [12] = test: Hypoglycemic activity in 48 hrs fasted Charles River rat at 300 mg/kg, ip measured at 2 hrs relative to control; assay type: functional; conditions: route intraperitoneal
Rattus norvegicus [13] = species on record: Rattus norvegicus; test: Toxicity in rat assessed as mortality measured at 6 hrs; assay type: organism-based; conditions: in vivo
Rattus norvegicus [14] = test: Hypoglycemic activity in 48 hrs fasted Charles River rat at 260 mg/kg, po measured at 4 hrs relative to control; assay type: functional
Rattus norvegicus [15] = test: Hypoglycemic activity in 48 hrs fasted Charles River rat at 260 mg/kg, po measured at 1 hr relative to control; assay type: functional
Rattus norvegicus [16] = test: Hypoglycemic activity in 48 hrs fasted Charles River rat at 260 mg/kg, po measured at 2 hrs relative to control; assay type: functional
Rattus norvegicus [17] = test: Hypoglycemic activity in 48 hrs fasted Charles River rat at 200 mg/kg, po measured at 1 hr relative to control; assay type: functional
Rattus norvegicus [18] = test: Hypoglycemic activity in 48 hrs fasted Charles River rat at 200 mg/kg, po measured at 2 hrs relative to control; assay type: functional
Rattus norvegicus [19] = test: Hypoglycemic activity in 48 hrs fasted Charles River rat at 200 mg/kg, po measured at 4 hrs relative to control; assay type: functional
Rattus norvegicus [20] = test: Hypoglycemic activity in 48 hrs fasted Charles River rat at 300 mg/kg, po measured at 2 hrs relative to control; assay type: functional
Rattus norvegicus [21] = test: Hypoglycemic activity in 48 hrs fasted Charles River rat at 300 mg/kg, po measured at 4 hrs relative to control; assay type: functional
Rattus norvegicus [22] = test: Hypoglycemic activity in 48 hrs fasted Charles River rat at 300 mg/kg, po measured at 1 hr relative to control; assay type: functional

Row | Compound | Activity (Rattus norvegicus [1]) | Activity (Rattus norvegicus [2]) | Activity (Rattus norvegicus [3]) | also measured
1 | Cc1cccnc1CO.Cl | 3% | -9% | 0% | –
2 | OCc1cccnc1 [NICOTINYL ALCOHOL] | -19% | 11% | -3% | –
3 | COCCCc1ncccc1C | -29% | -15% | -14% | Activity (Rattus norvegicus [4]): -52%; Activity (Rattus norvegicus [5]): Toxic; Activity (Rattus norvegicus [6]): Toxic
4 | Cc1cccnc1CCCS | -18% | -9% | -14% | –
5 | Cc1cccnc1CC(C)O.Cl (centres undefined) | -12% | 3% | -3% | –
6 | OCCCc1cccnc1 | -24% | 3% | -12% | Activity (Rattus norvegicus [7]): Active
7 | Cc1cccnc1CCCO | -68% | -22% | -18% | Activity (Rattus norvegicus [4]): -87%; fold change (FC) (Rattus norvegicus [8]): 10; Activity (Rattus norvegicus [9]): Active; Activity (Rattus norvegicus [5]): Toxic
8 | Cc1ccc[n+](C)c1CCCO.[I-] | -14% | -1% | 3% | –
9 | OCc1ccncc1 [PYRIDINE 4-METHANOL] | -4% | 4% | 0% | –
10 | OCCCc1ccccn1 | 46% | – | 9% | Activity (Rattus norvegicus [4]): 42%
11 | Cc1cccnc1C(=O)O | – | – | – | Activity (Rattus norvegicus [10]): -8%; Activity (Rattus norvegicus [11]): -15%; Activity (Rattus norvegicus [12]): -9%
12 | Cc1cccnc1CC(O)C(=O)O.Cl (centres undefined) | -1% | -9% | -5% | –
13 | CC(=O)Cc1ncccc1C | -8% | -12% | -14% | –
14 | Cc1cccnc1C.Cl | 8% | 0% | -5% | –
15 | Cc1cnc(CCCO)c(C)c1.Cl | -72% | 27% | -39% | Activity (Rattus norvegicus [5]): Toxic; Activity (Rattus norvegicus [6]): Toxic
16 | C[n+]1cccc(CCCO)c1.[I-] | -12% | -13% | -14% | –
17 | Cc1cccnc1CCC(=O)O | -85% | 5% | -28% | Activity (Rattus norvegicus [4]): -90%; Activity (Rattus norvegicus [5]): Toxic; Activity (Rattus norvegicus [13]): Toxic; Activity (Rattus norvegicus [6]): Toxic

Row | Compound | Activity (Rattus norvegicus [1]) | Activity (Rattus norvegicus [2]) | Activity (Rattus norvegicus [3]) | also measured
18 | Cc1ccc(CCCO)nc1.[O-][Cl+3]([O-])([O-])O | – | – | – | Activity (Rattus norvegicus [14]): 18%; Activity (Rattus norvegicus [15]): 0%; Activity (Rattus norvegicus [16]): -1%
19 | Cc1cccnc1CCC(C)(C)O.[O-][Cl+3]([O-])([O-])O | -10% | 6% | -7% | –
20 | Cc1ncccc1CO.Cl | -11% | -3% | 1% | –
21 | Cc1cccnc1CCCCO | 0% | -9% | -9% | –
22 | CCCCNC(=O)NS(=O)(=O)c1ccc(C)cc1 [TOLBUTAMIDE] | – | – | – | Activity (Rattus norvegicus [17]): 28%; Activity (Rattus norvegicus [18]): 47%; Activity (Rattus norvegicus [19]): 48%
23 | OC(Cc1ccccn1)C(Cl)(Cl)Cl (centres undefined) | – | – | – | Activity (Rattus norvegicus [20]): 40%; Activity (Rattus norvegicus [21]): 101%; Activity (Rattus norvegicus [22]): 24%
24 | CC1CCCNC1CCCO.Cl (centres undefined) | -6% | -15% | -3% | –
25 | Cc1cc2ccccc2nc1CCCO.Cl | -10% | 16% | -9% | –
26 | Cc1ccc[n+]([O-])c1CCCO | -8% | -6% | -3% | –
27 | Cc1cccnc1CC(O)C(Cl)(Cl)Cl.Cl (centres undefined) | -16% | -16% | -29% | –
28 | Cc1ncccc1CCCO.[O-][Cl+3]([O-])([O-])O | -1% | -4% | -8% | –
29 | Cc1cccnc1/C=C/C(=O)O | 23% | -5% | 4% | –
30 | Cc1cnc(CO)c(C)c1.Cl | -1% | -12% | -17% | Activity (Rattus norvegicus [4]): -9%
31 | CC(=O)OCCCc1ncccc1C | -73% | 21% | -34% | Activity (Rattus norvegicus [5]): Toxic; Activity (Rattus norvegicus [6]): Toxic
32 | OCCCc1ccncc1 | 33% | 17% | 14% | –
33 | OCc1ccccn1 [PICONOL] | 2% | 4% | 6% | –
34 | Cc1cccnc1CCO | 8% | -8% | -14% | –
